One compound from patent US6965048B2, “Hydroxyalkylamide derivatives” (Hoffmann-La Roche Inc., priority 2003, dated 2005) can be followed below.

For `CN(CC[C@H]1CC[C@H](C(=O)N2CCC(C(N)=O)CC2)CC1)C(=O)Oc1ccc(Cl)cc1`, the melting point (as a rule, the temperature, or range, at which the solid turns liquid) was 162 to 165 °C (dec.).
